Assay [1] addresses T1, MAO-A (Rattus norvegicus, UniProt P21396).
T1 sequence (P21396 1-526): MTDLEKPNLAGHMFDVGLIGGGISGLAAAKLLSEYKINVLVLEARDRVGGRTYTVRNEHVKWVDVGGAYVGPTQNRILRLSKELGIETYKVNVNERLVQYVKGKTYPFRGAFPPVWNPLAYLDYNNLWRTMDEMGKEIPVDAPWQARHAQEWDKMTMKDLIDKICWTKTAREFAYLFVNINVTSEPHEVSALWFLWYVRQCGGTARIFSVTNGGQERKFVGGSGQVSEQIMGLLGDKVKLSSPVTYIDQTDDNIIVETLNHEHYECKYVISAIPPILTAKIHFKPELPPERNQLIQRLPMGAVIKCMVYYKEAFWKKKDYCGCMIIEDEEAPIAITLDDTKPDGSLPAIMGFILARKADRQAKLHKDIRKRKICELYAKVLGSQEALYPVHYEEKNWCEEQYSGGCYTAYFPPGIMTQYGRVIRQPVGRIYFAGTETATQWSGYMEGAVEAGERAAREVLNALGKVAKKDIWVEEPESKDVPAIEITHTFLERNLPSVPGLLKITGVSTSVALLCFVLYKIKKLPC
The assay can be described thus: Inhibition of MAO-A in rat cortex mitochondrial-rich fractions. Particulars: read-out: Percent Inhibition MAO-A.

Assay [2] deals with T2, MAO-A (Cavia porcellus, UniProt H0UVA2).
T2 sequence (H0UVA2 1-461): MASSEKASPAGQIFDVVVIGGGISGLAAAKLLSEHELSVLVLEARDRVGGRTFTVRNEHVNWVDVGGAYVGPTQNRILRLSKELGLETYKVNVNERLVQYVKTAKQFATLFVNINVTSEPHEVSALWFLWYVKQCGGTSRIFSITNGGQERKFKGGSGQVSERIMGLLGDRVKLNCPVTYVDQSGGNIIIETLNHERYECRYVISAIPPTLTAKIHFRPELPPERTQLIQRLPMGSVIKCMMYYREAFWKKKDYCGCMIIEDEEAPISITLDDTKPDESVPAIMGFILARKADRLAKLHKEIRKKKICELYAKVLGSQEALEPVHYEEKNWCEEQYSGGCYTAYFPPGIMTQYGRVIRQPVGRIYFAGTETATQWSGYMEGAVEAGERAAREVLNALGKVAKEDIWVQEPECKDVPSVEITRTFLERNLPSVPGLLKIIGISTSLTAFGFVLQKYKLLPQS
Put plainly: MAO-A inhibition in guinea pig hippocampal homogenates in vitro. More on the design: specific substrates of MAO-A (^14C-serotonin) in guinea pig hippocampal homogenates; from tissue; host or cells: guinea pig hippocampal homogenates. It counts as biochemical. The text has this: Human platelet MAO is comprised exclusively of the type-B isoform of the enzyme. […] The present study also examined the two enantiomers of DMS for inhibitory activity with respect to the MAO-A and MAO-B in guinea pig hippocampal tissue. Guinea pig brain tissue is an excellent animal model for studying brain dopamine metabolism, the enzyme kinetics of the multiple forms of MAO and the inhibitory properties of novel agents that interact with these enzymes. The multiple forms of MAO in this animal species show similar kinetic properties to those found in human brain tissue. Finally, the test agents were administered to guinea pigs and the extent to which they might act as inhibitors of brain MAO in vivo was assessed.
In vitro: The test system utilized the in vitro conversion of specific substrates of MAO-A (^14C-serotonin) in guinea pig hippocampal homogenates or MAO-B (^14C-phenylethylamine) by human platelets and guinea pig hippocampal homogenates. […] A percent inhibition was calculated from these values.

The subject of assay [3] is cultured rat mesencephalic cells. Put plainly: TH immunochemistry after 100 μM NMDA exposure. Particulars: 50 μM; single sample; listed as Deprenyl.
Description: Rat mesencephalic cell cultures were exposed to 100 μM NMDA and incubated as described above in connection with FIG. 16.
The target of assay [4] is T2, MAO-A. Put plainly: In vivo MAO-A inhibition in guinea pig cortex (hippocampus) after 5 s.c. treatments. The conditions noted are these: sc, read-out: inhibition of MAO-A activity.
Description: Hippocampal homogenates containing enzyme were prepared, and assays in vitro for MAO-A and MAO-B activity.
Assay [5] has as its system rat embryonic mesencephalic cells. The assay can be described thus: [3H]dopamine uptake, medium change (glutamate receptor dependent) model of cell death. The conditions noted are these: 50 μM.
Description: Preparations are then added to 10 ml Ecoscint (National Diagnostics) and counted in a scintillation spectrometer.
(§1) In these experiments, cells were plated and allowed to stabilize for several days.
Assay [6] shares this test system. The assay can be described thus: TH positive cell survival, medium change (glutamate receptor dependent) model of cell death.
Description: as §1

One compound from patent US20060167110A1 (priority 1995, published 2006) can be followed below.

The inhibition is how much of the control response was suppressed.

Molecules are shown by their SMILES.

In the case of `C#CCN(C)[C@H](C)Cc1ccccc1` [Selegiline, (R)-N-α-dimethyl-N-2-propynylbenzeethanamine, reference compound], the inhibition at 0.03 µM in assay [1] stood at 0%. In addition, the results for the “MAO-A % Reduction 0 ± SEM” value in assay [2] (Concentration 300 nM), in assay [2] (Concentration 1 μM) and in assay [2] (Concentration 3 μM) were 11.95 ± 2.4%, 22.1 ± 1.2% and 53.5 ± 2.7%, respectively. For the same compound, the “reduction in potency compared to selegiline, MAO-A” value in assay [2] (figure in parentheses, times less potent) turned out to be 1. For the same compound, the “TH positive cells, cells/cm^2” value in assay [3] was determined as 230 cells/cm^2; in assay [6] (50 μM, Mean, listed as Deprenyl), 344.2 cells/cm^2. The inhibition at 1 mg/kg in assay [4] is 36.1%. Also, the “neuron protection by measurement of dopamine uptake (FIG. 15)” value in assay [5] was “neuron protection”. Moreover, the “survival of dopaminergic neurons (TH staining and tritiated dopamine uptake, FIGS. 11 and 12)” value in assay [6] (0.5, 5.0 or 50 μM, 4 days of daily medium changes) was “promotes the survival of dopaminergic neurons”.
